Experimental data as given in patent publication US5190919A, “Antihemostatic Factor VII peptides” (Board of Regents, The University of Texas System, priority 1989, dated 1993).
Like-named read-outs stand apart in the source and are kept apart here. Blank lines part the entries; values can stand above or below the substance they belong to. Ends that are not written are not given here.

Assays:
[1] = system: Factor VII-tissue factor complex; experiment: Rate of Factor X activation, two-stage chromogenic (amidolytic) assay with purified proteins; assay type: biochemical, human; settings: for Factor Xa Formation (% of Control Rate): 200 μM of each synthetic peptide, amidolytic assay, purified proteins; for Dose-dependent inhibition of the rate of Factor Xa formation / Factor VII activity: result in words
Procedure: (§1) 3. Rate of Factor X activation: The effect of the synthetic peptides on the rate of activation of Factor X was analyzed in a purified system employing chromogenic assays. For the inhibition experiments, peptides were diluted in 20 mM Tris-HCl, 150 mM NaCl, pH 7.4 (TBS) and preincubated with 10 microliters each of Factor X (180 nM) and tissue factor (0.075%) at 37 degrees Centigrade in a total volume of 140 microliters adjusted with TBS containing 1% bovine serum albumin (BSA) and 5 mM CaCl2. After 30 minutes, Factor X activation was initiated by the addition of 10 microliters of Factor VII (2 pM). At defined timed intervals, 20 microliter aliquots were removed and added to a microtiter plate containing 80 microliters of 50 mM Tris-HCl, 225 mM NaCl and 10 mM EDTA, pH 8.2. Following sample collection, 50 microliters of 0.6 mM chromogenic substrate was added and the rate of change in the absorbance at 405 nm was monitored for 10 minutes using a Vmax Kinetic Microplate Reader (Molecular Devices, Inc., Palo Alto, Calif.). The rate of Factor Xa formation was calculated from the slope of linear regression of data plotted as a function of the initial rate of hydrolysis (OD405 /min) versus time and expressed as OD405 /min^2.
(§2) 5. Inhibition assays: The inhibition of Factor VII function was determined in the two-stage chromogenic assay described in Example I-A, 3. The peptides were initially screened at 200 μM added concentration. To determine the concentration of peptide required to inhibit the rate of Factor X activation by 50% (CI50), peptides at various concentrations or buffer (TBS-BSA) were incubated with their respective complexes. Following the addition of Factor VII, the rate of Factor Xa generation was determined and the percent of Factor X activation in the presence of different concentrations of Factor VII peptides relative to buffer controls was calculated. Analogous determinations of the CI50 values were measured in the specific coagulation assay outlined above. Factor VII activity in the presence of varying concentrations of peptide was measured by comparing the clotting times to a standard curve constructed from the log of the clot time versus the log of Factor VII concentration in the same incubation mixtures described for the peptides.
(§3) Kinetic analysis of multiple inhibitors known to be noncompetitive in nature was conducted holding the concentration of the first inhibitory peptide constant and varying the concentration of a second inhibitory peptide. The analysis for mutual exclusivity of the inhibitory peptides employed the methods adapted from Segel (12). […] Regression lines which intersect with one another indicate mutual non-exclusivity of one peptide to another, i.e. tested peptides act as regions which are spatially separate from one another.
(§4) Factor VII function results from a two-step mechanism. First, Factor VII must associate with tissue factor in order to form the active macromolecular complex and second, Factor VII activity within the macromolecular complex can be measured by the conversion of substrate to product, e.g. activation of Factor X. The peptides of the present invention were tested for their ability to inhibit Factor X activation by employing the two-stage chromogenic assay described in Example I-A, 3. Inhibition of Factor X activation measured by this assay detects both of the steps stated for Factor VII function. To verify the inhibitory effect of the synthetic peptides, each of the components were titrated. […] Factor X was titrated against the preformed Factor VII-tissue factor complex in the presence of at least 10^4 molar excess of each peptide. Selected peptides were inoubated with tissue factor and Factor X for 30 minutes at […] before the addition of Factor VII. This preincubation time was sufficient for the peptides to reach equilibrium with the target protein (13). […]

Factor VII = target: T1, Factor VII (Homo sapiens, UniProt P08709); experiment: Two-stage clotting assay specific for Factor VII function in Factor VII-depleted plasma; assay type: biochemical; settings: for IC50: Table 2, Factor VII-depleted plasma, tissue factor, read-out: Concentration for 50% Inhibition, VIIa Coagulant Activity
T1 construct: Factor VII/VIIa (6), Factor X (7), and Factor Xa (8) were isolated as previously reported
T1 sequence (P08709 61-466): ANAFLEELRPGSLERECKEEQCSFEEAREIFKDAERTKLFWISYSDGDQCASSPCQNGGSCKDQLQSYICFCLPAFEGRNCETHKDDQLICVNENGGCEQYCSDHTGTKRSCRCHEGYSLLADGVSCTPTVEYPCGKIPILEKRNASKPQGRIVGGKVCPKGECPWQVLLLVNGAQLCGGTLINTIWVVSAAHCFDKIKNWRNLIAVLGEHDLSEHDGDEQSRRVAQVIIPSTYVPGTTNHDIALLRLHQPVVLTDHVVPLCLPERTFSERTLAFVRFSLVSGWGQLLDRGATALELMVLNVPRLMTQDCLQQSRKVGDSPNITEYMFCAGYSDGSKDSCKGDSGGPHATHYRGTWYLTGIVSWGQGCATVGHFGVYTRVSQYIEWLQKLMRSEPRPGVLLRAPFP
Procedure: 4. Coagulation assays: The effect of the synthetic peptides and antibodies to them on Factor VII coagulation activity was determined using two-stage clotting assays specific for Factor VII function.
Synthetic peptides were individually preincubated with 20 μl each of plasma immunochemically depleted of Factor VII and 0.25% tissue factor at 37 degrees Centigrade in a total volume of 190 μl adjusted with TBS containing 1% BSA and 5 mM CaCl2. At the end of 30 minutes, coagulation was initiated by the addition of 10 μl of Factor VII (1 nM). The time for clot formation was measured using a Fibrometer (BBL, Cockesysville, Md.). Factor VII activity in the presence of varying concentrations of peptide was quantitated by comparing their clotting times to a standard curve constructed from the log of the clot time versus the log of a known amount of Factor VII in the same reaction mixture without added peptide.
as §2, with “To determine the concentration of peptide required to inhibit the rate of Factor X activation by 50% (CI50), peptides at various concentrations or buffer (TBS-BSA) were incubated with their respective complexes.” left out
Based on the results of the chromogenic assays, three peptides, 208-229, 285-305 and 276-390, were selected for further study for their ability to inhibit a coagulation-based assay designed to measure Factor VII activity. […] After Factor VII was added, the time of clot formation was determined and quantitated.

[2] = target: T2, Factor VII-tissue factor complex (Homo sapiens, UniProt P08709+P13726); experiment: Rate of Factor X activation, two-stage chromogenic (amidolytic) assay with purified proteins; assay type: biochemical; settings: for IC50: derivatives of peptide 194-214 (FIG. 4), read-out: Apparent CI50, rate of Factor Xa formation
T2 construct: Factor VII/VIIa (6), Factor X (7), and Factor Xa (8) were isolated as previously reported; Tissue factor was prepared from human brain as described (9); from tissue; host or cells: Tissue factor from human brain (gift of Dr. J. H. Morrissey)
T2 sequence (P13726 33-295, one chain of several): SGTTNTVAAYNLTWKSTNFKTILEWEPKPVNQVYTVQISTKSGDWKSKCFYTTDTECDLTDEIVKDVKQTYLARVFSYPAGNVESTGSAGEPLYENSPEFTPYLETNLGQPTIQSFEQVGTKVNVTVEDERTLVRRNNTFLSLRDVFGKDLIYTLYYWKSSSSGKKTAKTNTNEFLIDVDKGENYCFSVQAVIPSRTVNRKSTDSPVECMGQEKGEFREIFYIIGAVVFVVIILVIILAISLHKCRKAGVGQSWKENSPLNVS
Procedure: as §1, §2, §3, §4

[3] = Table 4, derivatives of inhibitory peptides, read-out: CI50, concentration of peptide inhibiting the rate of Factor Xa activation by 50%

Substance: GKVCPKGEC [Peptide 156-164]
Factor Xa Formation (% of Control Rate) [1]: 97 % of Control Rate

Substance: VYTRVSQYIEWLQKL-NH2 [Peptide 376-390, VYTRVSQYIEWLQKL]
IC50 (Factor VII): 172 µM

Substance: LGEHDLSEHDGDEQSRRVAQVIGC-NH2 [Peptide 208-229]
IC50 [2]: ~50 µM | IC50 (Factor VII): 225 µM

Substance: R-T-K-L-F-W-I-S-Y-S-D-G-D-Q-C (RTKLFWISYSDGDQC) [Peptide 36-50]
Dose-dependent inhibition of the rate of Factor Xa formation / Factor VII activity [1]: significantly inhibit the rate of Factor Xa formation in a dose-dependent manner

Substance: GEHDLSEHDGDEQ [Peptide 209-221, GEHDLSEHDGDEQ]
IC50 [2]: ~70 µM

Substance: PRLMTQDCLQQSRKVGDSPNITEYMFC [Peptide 303-329]
Factor Xa Formation (% of Control Rate) [1]: 92 % of Control Rate

Substance: 193-203: Factor VII region II synthetic peptide used in mixed inhibition; possibly the 196-203 of Table 4 (YPCGKIPILEK; UniProt P08709 193-203, looked up, fragment) [Peptide 193-203]
Mixed inhibition, mutual exclusivity of peptides 209-221 and 193-203 ([2]; Dixon plots, 193-203 at 0, 14, 28 μM (FIG. 6A), parallel regression lines): mutually exclusive

Now from value to substance, other results behind:

IC50 ([1]; Table 2, read-out: Concentration for 50% Inhibition, Rate of Factor Xa Formation): 3000 nM | IC50 [1, 3]: 3000 nM | Ki ([1]; from Dixon plots of the rate of Factor Xa formation, three Factor X concentrations, read-out: Ki, peptide inhibition constants for Factor VII activity): 2800 ± 400 nM
Substance: GQLLDRGATALELMVLNVPRLGC-NH2 [Peptide 285-305]
Reduction of the rate and extent of Factor X activation ([1]; 9.5 μM peptide, varying Factor X concentration (FIG. 1)): about 50% | Factor Xa Formation (% of Control Rate) [1]: 0 % of Control Rate | Inhibition of the rate of Factor Xa formation relative to control reactions ([1]; 200 μM peptide): completely inhibited | Mixed inhibition, mutual exclusivity of peptides 209-221 and 285-305 ([1]; Dixon plots, 285-305 at 0, 1.5, 3.0 μM (FIG. 6B), lines intersect above abscissa): lack of mutual exclusively | Concentration for 50% inhibition, fold less than that for peptide 44-50, 194-214, 208-229 or 376-390 ([1]; FIG. 2): 15 to 20 fold | Concentration for 50% inhibition, fold less than that seen with peptides 170-178 and 330-340 ([1]; FIG. 2): 75 to 100 fold | Dose-dependent inhibition of the rate of Factor Xa formation / Factor VII activity [1]: significantly inhibit the rate of Factor Xa formation in a dose-dependent manner | Inhibition of clot formation (Factor VII; varying peptide concentrations (FIG. 7)): inhibited clot formation in a dose-dependent manner

IC50 [1, 3]: 205000 nM
Substance: RNLIAVLGEHDLSE [Peptide 202-214, RNLIAVLGEHDLSE]

IC50 [2]: ~50 µM
Substance: AVLGEHDLSEHDG [Peptide 206-218, AVLGEHDLSEHDG]

IC50 [2]: ~70 µM
Substance: CFDKIKNWRNLIAVLGEHDLS-NH2 [Peptide 194-214]
